# “And” between values parts separate entries of the source, which are not always exact repeats. Equal values may be shown once.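 Following 48 hours of exposure in 96-well plates, responses at five concentrations were used to interpolate endpoints linearly. Abbreviation: GI50, concentration required for 50% inhibition of growth. The concentration for full growth arrest is given as TGI.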
# What was measured:
# Test in all cases: NCI tumour cell line growth inhibition, 48 h
# SNB-75 CNS = system: SNB-75 CNS
# HOP-62 NSCLC = system: HOP-62 NSCLC
# HOP-92 NSCLC = system: HOP-92 NSCLC
# SNB-19 CNS = system: SNB-19 CNS
# UO-31 renal = system: UO-31 renal
# ACHN renal = system: ACHN renal
# 786-0 renal = system: 786-0 renal
# OVCAR-5 ovarian = system: OVCAR-5 ovarian
# K-562 leukemia = system: K-562 leukemia
# UACC-62 melanoma = system: UACC-62 melanoma
SMILES,TGI (SNB-75 CNS),TGI (HOP-62 NSCLC),TGI (HOP-92 NSCLC),TGI (SNB-19 CNS),TGI (UO-31 renal),TGI (ACHN renal),TGI (786-0 renal),TGI (OVCAR-5 ovarian),TGI (K-562 leukemia),TGI (UACC-62 melanoma),GI50 (SNB-75 CNS),GI50 (UO-31 renal),GI50 (ACHN renal),GI50 (OVCAR-5 ovarian),GI50 (K-562 leukemia),GI50 (UACC-62 melanoma),GI50 (HOP-62 NSCLC),GI50 (HOP-92 NSCLC),GI50 (SNB-19 CNS),GI50 (786-0 renal)
O=C1CCCCCCCCCCOC(=O)CCCCCCCCCCO1,> 100 µM,> 100 µM,> 100 µM,> 100 µM,> 100 µM,> 100 µM,> 100 µM,> 100 µM,> 100 µM,> 100 µM,–,–,–,–,–,–,–,–,–,–
CC(=O)Nc1ccc(Cc2ccc3[nH]c(=O)cc(C)c3c2)cc1,28.1 µM,> 100 µM,> 100 µM,> 100 µM,> 100 µM,> 100 µM,98.2 µM,> 100 µM,> 100 µM,> 100 µM,–,–,–,–,–,–,–,–,–,–
C=C(C)C1CCC2(C(=O)O)CCC3(C)C(CCC4C5(C)CCC(O)C(C)(C)C5CCC43C)C12 (centres undefined),33 µM,27.6 µM,12.4 µM,39.7 µM,24.5 µM,21.1 µM,25.2 µM,26.1 µM,27.3 µM,32.2 µM,–,–,–,–,–,–,–,–,–,–
C[C@H]1CCC2C(CN3CCCCC3)C(=O)OC2[C@]2(C)C(=O)CC(N3CCCCC3)C12O (some centres undefined),49.4 µM,–,7.54 µM,73 µM,27.9 µM,9.73 µM,22.2 µM,22.6 µM,39.2 µM,5.92 µM,–,–,–,–,–,–,–,–,–,–
COC(=O)c1cc2c(nc1C)-c1ccccc1OS2(=O)=O,35.3 µM,67.8 µM,83.2 µM,> 100 µM,> 100 µM,> 100 µM,> 100 µM,> 100 µM,> 100 µM,> 100 µM,–,–,–,–,–,–,–,–,–,–
O=C(NC(Cc1ccccc1)C(=O)CCl)OCc1ccccc1 (centres undefined),18.9 µM and 30.2 µM,30.6 µM and 29.4 µM,28.3 µM,25.3 µM and 25.1 µM,16.4 µM and 25.6 µM,13.3 µM and 21.8 µM,14.7 µM and 16.6 µM,18.5 µM and 24.2 µM,> 100 µM and 40.1 µM,17.7 µM and 21.2 µM,4770 nM,3910 nM,3720 nM,5.64 µM,2650 nM,4520 nM,–,–,–,–
CNC(=O)c1cc(Oc2ccc3nc(NC(=O)Nc4cc(C(F)(F)F)cc(C(F)(F)F)c4)sc3c2)ccn1,2.7 µM,2.8 µM,0.949 µM,4.43 µM,2.68 µM,1.98 µM,2.86 µM,3.52 µM,4.86 µM,2.1 µM,1000 nM,1260 nM,542 nM,1.55 µM,784 nM,583 nM,1150 nM,301 nM,1340 nM,1420 nM
COc1ccc2c(c1)CC1N(C)CCC13CCCCC23 (centres undefined),> 100 µM,> 100 µM,> 100 µM,> 100 µM,> 100 µM,> 100 µM,> 100 µM,> 100 µM,> 100 µM,> 100 µM,–,–,–,–,–,–,–,–,–,–
Cc1cc(N(CCC#N)CCC#N)ccc1CC1N=C(c2ccccc2)OC1=O (centres undefined),> 100 µM,> 100 µM,> 100 µM,> 100 µM,> 100 µM,> 100 µM,> 100 µM,> 100 µM,> 100 µM,> 100 µM,–,–,–,–,–,–,–,–,–,–
O=c1[nH]c(-c2ccc([N+](=O)[O-])cc2)nc2ccc(Cl)cc12,> 100 µM,–,84.2 µM,> 100 µM,> 100 µM,> 100 µM,> 100 µM,> 100 µM,38.8 µM,> 100 µM,–,–,–,–,–,–,–,–,–,–

# Reference: PubChem BioAssay (NCI)
